Assay results published in patent US5945440A, “Indolocarbazole imides and the use thereof” (priority 1992, dated 1999).

Tests used:
[1] = target: T1, MLC kinase (myosin light-chain kinase) (Gallus gallus, UniProt P11799); assay: inhibition of MLC kinase, in vitro enzyme test (32P phosphate incorporation); type: biochemical, chicken (stomach); details: for IC50: 1 nM MLC kinase, 250 μM ATP, pH 7.2, 20 minutes at 30° C., read-out: inhibition of the protein kinases, MLC-kinase IC50; for MLC kinase inhibition, in words: potency and selectivity vs protein kinase C; for ratio of IC50 C-kinase/IC50 MLC-kinase: selectivity factor calculated from the IC50 values
T1 construct: MLC kinase was purified from chicken stomach; from tissue; host or cells: chicken stomach (gizzard smooth muscle)
T1 sequence (P11799 935-1906): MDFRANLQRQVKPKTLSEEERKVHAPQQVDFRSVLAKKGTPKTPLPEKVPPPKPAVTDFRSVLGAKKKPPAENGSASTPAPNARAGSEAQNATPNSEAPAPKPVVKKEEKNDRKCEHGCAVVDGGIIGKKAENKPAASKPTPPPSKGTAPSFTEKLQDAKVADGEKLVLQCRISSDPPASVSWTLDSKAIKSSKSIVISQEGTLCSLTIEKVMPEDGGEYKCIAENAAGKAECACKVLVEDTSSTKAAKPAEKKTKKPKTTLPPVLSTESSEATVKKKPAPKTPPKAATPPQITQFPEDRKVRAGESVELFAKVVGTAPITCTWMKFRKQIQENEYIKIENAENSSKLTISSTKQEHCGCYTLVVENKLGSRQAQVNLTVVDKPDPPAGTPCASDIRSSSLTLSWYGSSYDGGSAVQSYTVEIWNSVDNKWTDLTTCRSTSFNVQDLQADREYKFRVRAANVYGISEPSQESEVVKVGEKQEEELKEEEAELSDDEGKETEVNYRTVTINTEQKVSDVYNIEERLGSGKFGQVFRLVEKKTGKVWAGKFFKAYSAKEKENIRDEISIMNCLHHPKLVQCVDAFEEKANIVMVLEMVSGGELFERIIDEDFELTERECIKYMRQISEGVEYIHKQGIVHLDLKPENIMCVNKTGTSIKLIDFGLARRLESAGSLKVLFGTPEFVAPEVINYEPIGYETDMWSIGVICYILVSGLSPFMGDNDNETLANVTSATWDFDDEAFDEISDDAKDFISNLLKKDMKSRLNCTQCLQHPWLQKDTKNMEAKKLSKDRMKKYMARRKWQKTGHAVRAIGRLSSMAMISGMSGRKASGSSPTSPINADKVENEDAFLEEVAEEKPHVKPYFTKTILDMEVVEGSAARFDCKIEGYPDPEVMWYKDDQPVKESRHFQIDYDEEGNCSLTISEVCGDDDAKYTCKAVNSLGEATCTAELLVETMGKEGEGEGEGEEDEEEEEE
Method: Inhibition of the enzyme MLC kinase (EC 3.6.1.3; kinase of the light myosin chain; myosin light-chain kinase).
The inhibition of MLC kinase was measured in an in vitro enzyme test.
The reaction was initiated by the addition of 1 nM MLC kinase. After incubation for 20 minutes at 30° C., the reaction was stopped with TCA and the samples then filtered off. The phosphate incorporation took place by means of Cerenkov counting of the filter.

protein kinase C = assay: inhibition of protein kinase C, enzyme test; type: biochemical; details: read-out: inhibition of the protein kinases, C-kinase IC50
Method: In order to ascertain whether it is a question of a selective inhibition of MLC kinase, the compounds were also investigated in other enzyme tests for protein kinase, including tests for protein kinase C. The results from the PKC test are also given in the following Table I. Furthermore, the Table contains selectivity factors which were calculated by the determination of the ratios of the IC50 values.

Cn1c2ccccc2c2c3c(c4c5ccccc5n(CCCN)c4c21)C(=O)NC3=O [Example 4, 12-(3-Aminopropyl)-6,7,12,13-tetrahydro-13-methyl-5,7-dioxo-5H-indolo[2,3-a]pyrrolo[3,4-c]carbazole]
IC50 [1]: 1.2 nM
MLC kinase inhibition, in words [1]: potent and selective inhibitors of MLC kinase
ratio of IC50 C-kinase/IC50 MLC-kinase [1]: 33
IC50 (protein kinase C): 39 nM

COc1ccc2c(c1)c1c3c(c4c5ccccc5n(C)c4c1n2CCCN)C(=O)NC3=O [Example 4a, 13-(3-aminopropyl)-6,7,12,13-tetrahydro-3-methoxy-12-methyl-5,7-dioxo-5H-indolo[2,3-a]pyrrolo[3,4-c]-carbazole]
IC50 [1]: 4.9 nM
MLC kinase inhibition, in words [1]: potent and selective inhibitors of MLC kinase
ratio of IC50 C-kinase/IC50 MLC-kinase [1]: 74
IC50 (protein kinase C): 360 nM

COc1ccc2c(c1)c1c3c(c4c5cc(OC)c(OC)cc5n(CCC#N)c4c1n2C)C(=O)NC3=O [Example 1s, 13-(2-cyanoethyl)-6,7,12,13-tetrahydro-2,3,9-trimethoxy-12-methyl-5,7-dioxo-5H-indolo[2,3-a]pyrrolo-[3,4-c]carbazole]
IC50 [1]: 33 nM
ratio of IC50 C-kinase/IC50 MLC-kinase [1]: 0.7
IC50 (protein kinase C): 24 nM

Cn1c2ccccc2c2c3c(c4c5cc(O)c(O)cc5n(CCC#N)c4c21)C(=O)NC3=O [Example 2b, 13-(2-cyanoethyl)-6,7,12,13-tetrahydro-2,3-dihydroxy-12-methyl-5,7-dioxo-5H-indolo[2,3-a]pyrrolo[3,4-c]-carbazole]
IC50 [1]: 32 nM
ratio of IC50 C-kinase/IC50 MLC-kinase [1]: 7.2
IC50 (protein kinase C): 230 nM

Cn1c2ccccc2c2c3c(c4c5cc(O)ccc5n(CCC#N)c4c21)C(=O)NC3=O [Example 2, 13-(2-Cyanoethyl)-6,7,12,13-tetrahydro-3-hydroxy-12-methyl-5,7-dioxo-5H-indolo[2,3-a]pyrrolo[3,4-c]-carbazole]
IC50 [1]: 19 nM
ratio of IC50 C-kinase/IC50 MLC-kinase [1]: 1.3
IC50 (protein kinase C): 24 nM

O=C1NC(=O)c2c1c1c3cc(O)ccc3[nH]c1c1[nH]c3ccc(O)cc3c21 [Example 2e, 6,7,12,13-tetrahydro-3,9-dihydroxy-5,1-dioxo-5H-indolo[2,3-a]pyrrolo[3,4-c]carbazole]
IC50 [1]: 5.7 nM
ratio of IC50 C-kinase/IC50 MLC-kinase [1]: 1.3
IC50 (protein kinase C): 7 nM

Cn1c2ccccc2c2c3c(c4c5ccccc5n(CC#N)c4c21)C(=O)NC3=O [Example 1e, 12-cyanomethyl-6,7,12,13-tetrahydro-13-methyl-5,7-dioxo-5H-indolo[2,3-a]pyrrolo[3,4-c]carbazole]
IC50 [1]: 17 nM
ratio of IC50 C-kinase/IC50 MLC-kinase [1]: 0.8
IC50 (protein kinase C): 14 nM

COc1ccc2c(c1)c1c3c(c4c5ccccc5n(C)c4c1n2CCCC#N)C(=O)NC3=O [Example 1q, 13-(3-cyanopropyl)-6,7,12,13-tetrahydro-3-methoxy-12-methyl-5,7-dioxo-5H-indolo[2,3-a]pyrrolo[3,4-c]-carbazole]
IC50 [1]: 32 nM
ratio of IC50 C-kinase/IC50 MLC-kinase [1]: 0.15
IC50 (protein kinase C): 4.7 nM

CN(C)CCCn1c2ccccc2c2c3c(c4c5ccccc5[nH]c4c21)C(=O)NC3=O [Example 7a, 13-(3-dimethylaminopropyl)-6,7,12,13-tetrahydro-5,7-dioxo-5H-indolo[2,3-a]pyrrolo[3,4-c]carbazole]
IC50 [1]: 52 nM
ratio of IC50 C-kinase/IC50 MLC-kinase [1]: 10
IC50 (protein kinase C): 530 nM

COc1ccc2c(c1)c1c3c(c4c5cc(Cl)ccc5n(CCCN)c4c1n2C)C(=O)NC3=O [Example 4b, 13-(3-aminopropyl)-3-chloro-6,7,12,13-tetrahydro-9-methoxy-12-methyl-5,7-dioxo-5H-indolo[2,3-a]pyrrolo-[3,4-c]carbazole]
IC50 [1]: 1.5 nM
MLC kinase inhibition, in words [1]: potent and selective inhibitors of MLC kinase
ratio of IC50 C-kinase/IC50 MLC-kinase [1]: 23
IC50 (protein kinase C): 34 nM

Cn1c2ccccc2c2c3c(c4c5ccccc5n(CCC#N)c4c21)C(=O)NC3=O [Example 1a, 12-(2-cyanoethyl)-6,7,12,13-tetrahydro-13-methyl-5,7-dioxo-5H-indolo[2,3-a]pyrrolo[3,4-c]carbazole]
IC50 [1]: 55 nM
ratio of IC50 C-kinase/IC50 MLC-kinase [1]: 0.7
IC50 (protein kinase C): 38 nM

O=C1NC(=O)c2c1c1c3ccccc3[nH]c1c1[nH]c3cc(Cl)ccc3c21 [Example 11c, 2-chloro-6,7,12,13-tetrahydro-5,7-dioxo-5H-indolo[2,3-a]pyrrolo[3,4-c]carbazole]
IC50 [1]: 86 nM
MLC kinase inhibition, in words [1]: potent and selective inhibitors of MLC kinase
ratio of IC50 C-kinase/IC50 MLC-kinase [1]: 47
IC50 (protein kinase C): 4000 nM

CCN(CC)CC(O)Cn1c2ccccc2c2c3c(c4c5ccccc5n(C)c4c21)C(=O)NC3=O (racemic) [Example 10a, (±)-12-(3-diethylamino-2-hydroxy-1-propyl)-6,7,12,13-tetrahydro-13-methyl-5,7-dioxo-5H-indolo-[2,3-a]pyrrolo[3,4-c]carbazole]
IC50 [1]: 370 nM
ratio of IC50 C-kinase/IC50 MLC-kinase [1]: 0.3
IC50 (protein kinase C): 120 nM

COc1ccc2c3c4c(c5c6ccccc6n(C)c5c3n(CCC#N)c2c1)C(=O)NC4=O [Example 1u, 13-(2-cyanoethyl)-6,7,12,13-tetrahydro-2-methoxy-12-methyl-5,7-dioxo-5H-indolo[2,3-a]pyrrolo[3,4-c]-carbazole]
IC50 [1]: 540 nM
ratio of IC50 C-kinase/IC50 MLC-kinase [1]: 8.7
IC50 (protein kinase C): 4700 nM

Cn1c2ccc(O)cc2c2c3c(c4c5cc(O)ccc5n(CCC#N)c4c21)C(=O)NC3=O [Example 2f, 12-(2-cyanoethyl)-6,7,12,13-tetrahydro-3,9-dihydroxy-13-methyl-5,7-dioxo-5H-indolo[2,3-a]pyrrolo-[3,4-c]carbazole]
IC50 [1]: 10 nM
ratio of IC50 C-kinase/IC50 MLC-kinase [1]: 0.4
IC50 (protein kinase C): 4.2 nM

Cn1c2ccccc2c2c3c(c4c5ccccc5n(CCCN=[N+]=[N-])c4c21)C(=O)NC3=O [Example 1l, 12-(3-azidopropyl)-6,7,12,13-tetrahydro-13-methyl-5,7-dioxo-5H-indolo[2,3-a]pyrrolo[3,4-c]carbazole]
IC50 [1]: 130 nM
ratio of IC50 C-kinase/IC50 MLC-kinase [1]: 0.4
IC50 (protein kinase C): 50 nM

O=C1NC(=O)c2c1c1c3cc(Br)ccc3[nH]c1c1[nH]c3ccc(Br)cc3c21 [Example 11g, 3,9-dibromo-6,7,12,13-tetrahydro-5,7-dioxo-5H-indolo[2,3-a]pyrrolo[3,4-c]carbazole]
IC50 [1]: 370 nM
ratio of IC50 C-kinase/IC50 MLC-kinase [1]: 12
IC50 (protein kinase C): 4600 nM

COc1ccc2c(c1)c1c3c(c4c5ccccc5n(CCCN(C)C)c4c1n2C)C(=O)NC3=O [Example 1y, 12-(3-dimethylaminopropyl)-6,7,12,13-tetrahydro-3-methoxy-13-methyl-5,7-dioxo-5H-indolo[2,3-a]pyrrolo-[3,4-c]carbazole]
IC50 [1]: 7.6 nM
ratio of IC50 C-kinase/IC50 MLC-kinase [1]: 4.1
IC50 (protein kinase C): 31 nM

COc1cc2c3c4c(c5c6ccccc6n(C)c5c3n(CCCN(C)C)c2cc1OC)C(=O)NC4=O [Example 1z, 13-(3-dimethylaminopropyl)-6,7,12,13-tetrahydro-2,3-dimethoxy-12-methyl-5,7-dioxo-5H-indolo[2,3-a]-pyrrolo[3,4-c]carbazole]
IC50 [1]: 20 nM
ratio of IC50 C-kinase/IC50 MLC-kinase [1]: 1.3
IC50 (protein kinase C): 26 nM

COc1ccc2c(c1)c1c3c(c4c5ccccc5n(CCCC#N)c4c1n2C)C(=O)NC3=O [Example 1h, 12-(3-cyanopropyl)-6,7,12,13-tetrahydro-3-methoxy-13-methyl-5,7-dioxo-5H-indolo[2,3-a]pyrrolo[3,4-c]-carbazole]
IC50 [1]: 24 nM
ratio of IC50 C-kinase/IC50 MLC-kinase [1]: 1
IC50 (protein kinase C): 24 nM
